Measured values: EP0584797A2, “Novel cephalosporin compounds and processes for the preparation thereof” (LUCKY LTD., priority 1992, dated 1994)
Values after ≈ are worked out from the molar mass of the structure shown.

Experiments:
Assay in all cases: minimal inhibitory concentration, two-fold agar dilution
Assay type in all cases: cell-based
[1] = tested on: Pseudomonas aeruginosa ATCC 25619; details: ATCC25619, Muller-Hinton agar, 37°C, 20 hours, read-out: MIC values against the standard strains
Outline: (§1)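 Compounds were serially diluted two-fold into Mueller-Hinton agar, and each plate was spot-inoculated with the test strain at 10⁷ CFU per ml. Plates were incubated at 37°C for 20 hours before MIC values were read.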

[2] = tested on: Enterobacter aerogenes ATCC 29751; details: Klebsiella aerogenes, ATCC29751; Muller-Hinton agar; 37°C; 20 hours; read-out: MIC values against the standard strains
Outline: as §1

[3] = tested on: Serratia marcescens ATCC 27117; details: ATCC27117, Muller-Hinton agar, 37°C, 20 hours, read-out: MIC values against the standard strains
Outline: as §1

[4] = tested on: Enterobacter cloacae ATCC 27508; details: ATCC27508, Muller-Hinton agar, 37°C, 20 hours, read-out: MIC values against the standard strains
Outline: as §1

[5] = tested on: Shigella flexneri ATCC 11836; details: ATCC11836, Muller-Hinton agar, 37°C, 20 hours, read-out: MIC values against the standard strains
Outline: as §1

[6] = tested on: Pseudomonas aeruginosa ATCC 27853; details: ATCC27853, Muller-Hinton agar, 37°C, 20 hours, read-out: MIC values against the standard strains
Outline: as §1

[7] = tested on: Bacillus cereus ATCC 11778; details: ATCC11778, Muller-Hinton agar, 37°C, 20 hours, read-out: MIC values against the standard strains
Outline: as §1

[8] = tested on: Micrococcus luteus ATCC 9341; details: ATCC9341, Muller-Hinton agar, 37°C, 20 hours, read-out: MIC values against the standard strains
Outline: as §1

[9] = tested on: Staphylococcus epidermidis ATCC 12228; details: ATCC12228, Muller-Hinton agar, 37°C, 20 hours, read-out: MIC values against the standard strains
Outline: as §1

[10] = tested on: Proteus mirabilis ATCC 25933; details: ATCC25933, Muller-Hinton agar, 37°C, 20 hours, read-out: MIC values against the standard strains
Outline: as §1

[11] = tested on: Klebsiella pneumoniae ATCC 10031; details: ATCC10031, Muller-Hinton agar, 37°C, 20 hours, read-out: MIC values against the standard strains
Outline: as §1

[12] = tested on: Morganella morganii ATCC 8076h; details: ATCC8076H, Muller-Hinton agar, 37°C, 20 hours, read-out: MIC values against the standard strains
Outline: as §1

[13] = tested on: Streptococcus faecalis ATCC 29212; details: Enterococcus faecalis, ATCC29212; Muller-Hinton agar; 37°C; 20 hours; read-out: MIC values against the standard strains
Outline: as §1

[14] = tested on: Proteus vulgaris ATCC 6059; details: ATCC6059, Muller-Hinton agar, 37°C, 20 hours, read-out: MIC values against the standard strains
Outline: as §1

[15] = tested on: Escherichia coli ATCC 25922; details: ATCC25922, Muller-Hinton agar, 37°C, 20 hours, read-out: MIC values against the standard strains
Outline: as §1

[16] = tested on: Escherichia coli ATCC 10536; details: ATCC10536, Muller-Hinton agar, 37°C, 20 hours, read-out: MIC values against the standard strains
Outline: as §1

[17] = tested on: Staphylococcus aureus ATCC 10537; details: ATCC10537, Muller-Hinton agar, 37°C, 20 hours, read-out: MIC values against the standard strains
Outline: as §1

[18] = tested on: Shigella sonnei ATCC 11060; details: ATCC11060, Muller-Hinton agar, 37°C, 20 hours, read-out: MIC values against the standard strains
Outline: as §1

[19] = tested on: Citrobacter freundii ATCC 8090; details: ATCC8090, Muller-Hinton agar, 37°C, 20 hours, read-out: MIC values against the standard strains
Outline: as §1

[20] = tested on: Pseudomonas aeruginosa ATCC 10145; details: ATCC10145, Muller-Hinton agar, 37°C, 20 hours, read-out: MIC values against the standard strains
Outline: as §1

[21] = tested on: Salmonella typhimurium ATCC 14028; details: Salmonella enterica; Muller-Hinton agar; 37°C; 20 hours; read-out: MIC values against the standard strains
Outline: as §1

[22] = tested on: Acinetobacter calcoaceticus ATCC 15437; details: ATCC15437, Muller-Hinton agar, 37°C, 20 hours, read-out: MIC values against the standard strains
Outline: as §1

[23] = tested on: Providencia rettgeri ATCC 9250; details: ATCC9250, Muller-Hinton agar, 37°C, 20 hours, read-out: MIC values against the standard strains
Outline: as §1

[24] = tested on: Bacillus megaterium ATCC 9885; details: Priestia megaterium, ATCC9885; Muller-Hinton agar; 37°C; 20 hours; read-out: MIC values against the standard strains
Outline: as §1

[25] = tested on: Staphylococcus aureus ATCC 6538p; details: ATCC6538P, Muller-Hinton agar, 37°C, 20 hours, read-out: MIC values against the standard strains
Outline: as §1

Compound | MIC [1] [µg/mL] | MIC [2] [µg/mL] | MIC [3] [µg/mL] | MIC [4] [µg/mL] | MIC [5] [µg/mL] | MIC [6] [µg/mL] | MIC [7] [µg/mL] | MIC [8] [µg/mL] | MIC [9] [µg/mL] | MIC [10] [µg/mL] | MIC [11] [µg/mL] | MIC [12] [µg/mL] | MIC [13] [µg/mL] | MIC [14] [µg/mL] | MIC [15] [µg/mL] | MIC [16] [µg/mL] | MIC [17] [µg/mL] | MIC [18] [µg/mL] | MIC [19] [µg/mL] | MIC [20] [µg/mL] | further results
CC[n+]1ccc(N)nc1SCC1=C(C(=O)[O-])N2C(=O)[C@@H](NC(=O)/C(=N\OC(C)(C)C(=O)O)c3csc(N)n3)[C@H]2SC1 [Example 12, 7-[(Z)-2-(2-aminothiazol-4-yl)-2-(carboxyprop-2-oxyimino)acetamido]-3-(4-amino-1-ethylpyrimidinium-2-yl)thiomethyl-3-cephem-4-carboxylate] | 2 (≈ 3.21 µM) | 2 (≈ 3.21 µM) | 0.5 (≈ 0.803 µM) | 0.031 (≈ 0.0498 µM) | 0.25 (≈ 0.401 µM) | 8 (≈ 12.8 µM) | 128 (≈ 206 µM) | 0.5 (≈ 0.803 µM) | 2 (≈ 3.21 µM) | 1 (≈ 1.61 µM) | ≤ 0.008 | 0.016 (≈ 0.0257 µM) | 64 (≈ 103 µM) | 1 (≈ 1.61 µM) | 0.063 (≈ 0.101 µM) | 0.063 (≈ 0.101 µM) | 2 (≈ 3.21 µM) | 0.5 (≈ 0.803 µM) | 0.13 (≈ 0.209 µM) | 16 (≈ 25.7 µM) | MIC [21]: 1 µg/mL (≈ 1.61 µM); MIC [22]: 8 µg/mL (≈ 12.8 µM); MIC [23]: ≤ 0.008 µg/mL; MIC [24]: 0.5 µg/mL (≈ 0.803 µM); MIC [25]: 4 µg/mL (≈ 6.42 µM)
CCO/N=C(\C(=O)N[C@@H]1C(=O)N2C(C(=O)[O-])=C(CSc3nc(N)c(N)c(N)[n+]3CC)CS[C@H]12)c1csc(N)n1 [Example 13, 7-[(Z)-2-(2-aminothiazol-4-yl)-2-(ethoxyimino)acetamido]-3-(4,5,6-triamino-1-ethylpyrimidinium-2-yl)thiomethyl-3-cephem-4-carboxylate] | 8 (≈ 13.5 µM) | 2 (≈ 3.36 µM) | 1 (≈ 1.68 µM) | 0.016 (≈ 0.0269 µM) | 0.5 (≈ 0.841 µM) | 32 (≈ 53.8 µM) | 64 (≈ 108 µM) | 0.13 (≈ 0.219 µM) | 0.13 (≈ 0.219 µM) | 2 (≈ 3.36 µM) | 0.13 (≈ 0.219 µM) | 0.13 (≈ 0.219 µM) | > 128 | 2 (≈ 3.36 µM) | 0.063 (≈ 0.106 µM) | 0.063 (≈ 0.106 µM) | 0.25 (≈ 0.42 µM) | 0.5 (≈ 0.841 µM) | 0.5 (≈ 0.841 µM) | 64 (≈ 108 µM) | MIC [21]: 1 µg/mL (≈ 1.68 µM); MIC [22]: 16 µg/mL (≈ 26.9 µM); MIC [23]: 0.13 µg/mL (≈ 0.219 µM); MIC [24]: 0.13 µg/mL (≈ 0.219 µM); MIC [25]: 0.5 µg/mL (≈ 0.841 µM)
CCO/N=C(\C(=O)N[C@@H]1C(=O)N2C(C(=O)[O-])=C(CSc3nc(N)cc[n+]3CC)CS[C@H]12)c1csc(N)n1 [Example 14, 7-[(Z)-2-(2-aminothiazol-4-yl)-2-(ethoxyimino)acetamido]-3-(4-amino-1-ethylpyrimidinium-2-yl)thiomethyl-3-cephem-4-carboxylate] | 8 (≈ 14.2 µM) | 1 (≈ 1.77 µM) | 1 (≈ 1.77 µM) | 0.13 (≈ 0.23 µM) | 0.25 (≈ 0.443 µM) | 32 (≈ 56.7 µM) | 32 (≈ 56.7 µM) | 0.25 (≈ 0.443 µM) | 0.25 (≈ 0.443 µM) | 2 (≈ 3.54 µM) | 0.13 (≈ 0.23 µM) | 0.13 (≈ 0.23 µM) | > 128 | 2 (≈ 3.54 µM) | 0.063 (≈ 0.112 µM) | 0.13 (≈ 0.23 µM) | 0.25 (≈ 0.443 µM) | 0.25 (≈ 0.443 µM) | 0.13 (≈ 0.23 µM) | 64 (≈ 113 µM) | MIC [21]: 1 µg/mL (≈ 1.77 µM); MIC [22]: 16 µg/mL (≈ 28.3 µM); MIC [23]: 0.063 µg/mL (≈ 0.112 µM); MIC [24]: 0.25 µg/mL (≈ 0.443 µM); MIC [25]: 0.5 µg/mL (≈ 0.885 µM)
CCO/N=C(\C(=O)N[C@@H]1C(=O)N2C(C(=O)[O-])=C(CSc3nc(N)c(N)c(N)[n+]3CC)CS[C@H]12)c1nsc(N)n1 [Example 15, 7-[(Z)-2-(5-amino-1,2,4-thiadiazol-3-yl)-2-(ethoxyimino)acetamido]-3-(4,5,6-triamino-1-ethylpyrimidinium-2-yl)thiomethyl-3-cephem-4-carboxylate] | 1 (≈ 1.68 µM) | 0.063 (≈ 0.106 µM) | 0.5 (≈ 0.839 µM) | 0.031 (≈ 0.052 µM) | 0.25 (≈ 0.42 µM) | 2 (≈ 3.36 µM) | 32 (≈ 53.7 µM) | 0.063 (≈ 0.106 µM) | 0.25 (≈ 0.42 µM) | 1 (≈ 1.68 µM) | 0.016 (≈ 0.0269 µM) | ≤ 0.008 | 32 (≈ 53.7 µM) | 1 (≈ 1.68 µM) | 0.063 (≈ 0.106 µM) | 0.063 (≈ 0.106 µM) | 0.25 (≈ 0.42 µM) | 0.25 (≈ 0.42 µM) | 0.5 (≈ 0.839 µM) | 8 (≈ 13.4 µM) | MIC [21]: 0.5 µg/mL (≈ 0.839 µM); MIC [22]: 4 µg/mL (≈ 6.71 µM); MIC [23]: ≤ 0.008 µg/mL; MIC [24]: 0.13 µg/mL (≈ 0.218 µM); MIC [25]: 0.5 µg/mL (≈ 0.839 µM)
CCO/N=C(\C(=O)N[C@@H]1C(=O)N2C(C(=O)[O-])=C(CSc3nc(N)cc[n+]3CC)CS[C@H]12)c1nsc(N)n1 [Example 16, 7-[(Z)-2-(5-amino-1,2,4-thiadiazol-3-yl)-2-(ethoxyimino)acetamido]-3-(4-amino-1-ethylpyrimidinium-2-yl)thiomethyl-3-cephem-4-carboxylate] | 2 (≈ 3.54 µM) | 0.063 (≈ 0.111 µM) | 1 (≈ 1.77 µM) | 0.063 (≈ 0.111 µM) | 0.5 (≈ 0.884 µM) | 4 (≈ 7.07 µM) | 64 (≈ 113 µM) | 0.5 (≈ 0.884 µM) | 0.5 (≈ 0.884 µM) | 2 (≈ 3.54 µM) | 0.016 (≈ 0.0283 µM) | 0.031 (≈ 0.0548 µM) | 32 (≈ 56.6 µM) | 2 (≈ 3.54 µM) | 0.031 (≈ 0.0548 µM) | 0.031 (≈ 0.0548 µM) | 0.5 (≈ 0.884 µM) | 0.5 (≈ 0.884 µM) | 0.5 (≈ 0.884 µM) | 16 (≈ 28.3 µM) | MIC [21]: 1 µg/mL (≈ 1.77 µM); MIC [22]: 8 µg/mL (≈ 14.1 µM); MIC [23]: 0.031 µg/mL (≈ 0.0548 µM); MIC [24]: 0.5 µg/mL (≈ 0.884 µM); MIC [25]: 0.25 µg/mL (≈ 0.442 µM)
